The results in this text go back to patent publication US20080108611A1, “SUBSTITUTED THIENOPYRIMIDINE KINASE INHIBITORS” (priority 2006, published 2008).

Assay [1] has as its target T1, VEGF-R2 (Rattus norvegicus, UniProt O08775).
T1 construct: polyhistidine (N)
In words: VEGF-R2 Screening Assay. Format: biochemical. The settings on record: rat VEGF-R2 kinase domain, 10 μM ATP. As to the method: (§1) A kinase reaction mixture was prepared containing 50 mM Tris-HCl at pH 8, 10 mM MgCl2, 0.1 mM Na3PO4, 1 mM DTT, 10 μM ATP, 0.025 μM biotinylated histone-H1 peptide substrate and 0.2 μCuries per well ^33P-γ-ATP (2000-3000 Ci/mmol). 70 μL of the kinase reaction mixture was dispensed into the well of a Streptavidin FlashPlate.
(§2) Test compound stock in 100% DMSO (1 μL) was added to the wells resulting in a final concentration of 1% DMSO in the reaction with a 100 μL final reaction volume. Each enzyme was diluted in 50 mM Tris-HCl pH=8.0, 0.1% BSA and 30 μL was added to each well to initiate the reaction. The reaction was incubated for one hour at 30° C. At the end of the 1 hr incubation, the reaction was terminated by aspirating the mixture from the plate and washing the wells twice with PBS containing 100 mM EDTA. The biotinylated peptide substrate became immobilized on the Flashplate™ and the incorporation of ^33P-γ-ATP was measured by reading the plate on a scintillation counter. Inhibition of the enzymatic activity was measured by observing a reduced amount of ^33P-γ-ATP incorporated into the immobilized peptide.
The VEGF-R2 enzyme is a fusion protein containing a polyhistidine tag at the N terminus followed by amino acids 786 to 1343 of the rat VEGF-R2 kinase domain (Accession number U93306). The assay used 150 ng of the N-terminal biotinylated peptide biotin-KHKKLAEGSAYEEV-amide (VEGF-R2) per well.
(§3) The IC50 was derived according to the procedure described in Example 1.

Assay [2] has as its target T2, Aurora-A (Mus musculus, UniProt P97477).
T2 construct: followed by the full length protein encoding the murine Aurora-A; polyhistidine (N); made in house; host or cells: Sf9 insect cells
T2 sequence (P97477 1-395): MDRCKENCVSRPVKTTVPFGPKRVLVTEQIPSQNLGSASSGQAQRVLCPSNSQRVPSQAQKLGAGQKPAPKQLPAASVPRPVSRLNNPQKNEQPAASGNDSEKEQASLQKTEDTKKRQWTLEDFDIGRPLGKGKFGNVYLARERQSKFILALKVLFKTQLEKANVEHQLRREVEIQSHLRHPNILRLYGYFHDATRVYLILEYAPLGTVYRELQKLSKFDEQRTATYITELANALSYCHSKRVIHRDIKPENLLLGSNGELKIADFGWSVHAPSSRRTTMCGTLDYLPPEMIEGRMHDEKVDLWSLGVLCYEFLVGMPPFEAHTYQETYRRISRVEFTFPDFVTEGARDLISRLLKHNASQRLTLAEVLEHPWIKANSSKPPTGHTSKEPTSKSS
In words: Aurora-A Screening Assay. Format: biochemical. The settings on record: murine Aurora-A full length, 10 μM ATP. The method, then:
as §1, §2
Aurora-A is a fusion protein containing a polyhistidine tag at the N terminus followed by the full length protein encoding the murine Aurora-A (Accession number GB BC014711) expressed and purified from sf9 insect cells. The assay used 400 ng of the N-terminal biotinylated peptide biotin-GRTGRRNSI-amide (Aurora-A) per well.
as §3

Assay [3] deals with T3, Lyn kinase (Homo sapiens, UniProt P07948).
T3 construct: purchased Upstate Biotechnology, Lake Placid, N.Y
In words: Lyn Kinase Assay. Format: biochemical. The settings on record: test concentration of 2 μM; read-out: Lyn Inhibition (%) Inh. The method, then: A mixture of a 10× kinase buffer (500 mM MOPS at pH 7.5, 1 mM EGTA, 1 mM Sodium Vanadate, 1% β-mercaptoethanol and 100 mM Magnesium Acetate), ATP (5 μM final from a 10 mM stock), polyGluTyr (0.1 mg/mL final from a 1 mg/mL stock), γ-^33P ATP (10 μCi/μL stock) and water (20 μL/well) was added to each well of a Streptavidin Flashplate.
Test compound in 100% DMSO (0.5 μL) was added to the appropriate wells. Diluted Lyn kinase (human) (Upstate Biotechnology, Lake Placid, N.Y.) (diluted in a buffer consisting of 50 mM Tris at pH 7.5, 0.1 mM EGTA, Sodium Vanadate (0.1 mM), 13-mercaptoethanol (0.1%) and 1 mg/mL bovine serum albumin) (2.5 μL) was added to the wells to initiate the reactions.
The reaction plates were incubated at 30° C. for 40 min. The reaction was terminated by the addition of a 3% phosphoric acid solution (5 μL). The reaction product (10 μL) was spotted onto a P30 filtermat and washed for 5 minutes in phosphoric acid (75 mM). The wash sequence was repeated two more times, followed with one final wash in methanol. The plates were then dried, sealed and read on the TopCount scintillation counter after adding 30 μL scintillation fluid. Percent inhibition was derived according to the procedure described in Example 1. The percent inhibition results are shown in Table 4 at a test concentration of 2 μM.

Assay [4] relates to HeLa cervical adenocarcinoma. Nature of the assay: Cell Proliferation Inhibition Assay (14C-thymidine incorporation), HeLa. Format: cell-based. The settings on record: Homo sapiens; HeLa cells. As to the method: (§4) The ability of a test compound to inhibit unregulated cell proliferation was determined by measuring incorporation of ^14C-labelled thymidine into newly synthesized DNA within cell lines derived from carcinomas originating from several tissues. Accordingly, the anti-proliferative effect of a compound on cells with a variety of phenotypes may be determined.
(§5) Carcinoma cell lines include those such as HeLa cervical adenocarcinoma (American Type Culture Collection (ATCC), Virginia, Cat. #CCL-2), A375 malignant melanoma (ATCC CRL-1619), SK-OV-3 ovarian adenocarcinoma (ATCC HTB-77), HCT-116 colon carcinoma (CCL-247), PC-3 prostate adenocarcinoma (ATCC CRL-1435), and MDA-MB-231 (Xenogen Corp.)
(§6) The carcinoma cells were trypsinized and counted. The cells (3000-8000 count) were added to each well of a 96-well CytoStar tissue culture treated scintillating microplate (Amersham #RPNQ0160) in complete medium (100 μL) and the plate was then incubated in complete medium for 24 hrs at 37° C. in an […] atmosphere containing 5% CO2. Test compound (1 μL) in 100% DMSO was added to the plate test-wells with DMSO only added to control-wells. The plate was incubated in complete medium for a second 24 hr period at 37° C. in an atmosphere containing 5% CO2.
(§7) An aliquot of a solution of methyl ^14C-thymidine (56 mC/mmol) (NEN #NEC568 or Amersham #CFA532) and complete medium (20 uL to provide 0.2 μCi/well) was then added to each well and the plate was incubated for a third 24 hr period at 37° C. in an atmosphere containing 5% CO2. The plate contents were then discarded, the plate was washed twice with PBS (200 μL) and then PBS (200 μL) was added to each well. The plate was sealed and the degree of methyl ^14C-thymidine incorporation was quantified on a Packard Top Count.

Assay [5] concerns A375 malignant melanoma. In words: Cell Proliferation Inhibition Assay (14C-thymidine incorporation), A375. It counts as cell-based. The settings on record: Homo sapiens, A-375; A375 cells. As to the method:
as §4, §5, §6, §7
A general note: Uptake of a labelled nucleoside into DNA is a usual measure of proliferation.

The test system of assay [6] is HCT-116 colon carcinoma. Nature of the assay: Cell Proliferation Inhibition Assay (14C-thymidine incorporation), HCT116. Format: cell-based. The settings on record: Homo sapiens, HCT116 cells. As to the method: as §4, §5, §6, §7

T3 sequence (P07948 whole entry): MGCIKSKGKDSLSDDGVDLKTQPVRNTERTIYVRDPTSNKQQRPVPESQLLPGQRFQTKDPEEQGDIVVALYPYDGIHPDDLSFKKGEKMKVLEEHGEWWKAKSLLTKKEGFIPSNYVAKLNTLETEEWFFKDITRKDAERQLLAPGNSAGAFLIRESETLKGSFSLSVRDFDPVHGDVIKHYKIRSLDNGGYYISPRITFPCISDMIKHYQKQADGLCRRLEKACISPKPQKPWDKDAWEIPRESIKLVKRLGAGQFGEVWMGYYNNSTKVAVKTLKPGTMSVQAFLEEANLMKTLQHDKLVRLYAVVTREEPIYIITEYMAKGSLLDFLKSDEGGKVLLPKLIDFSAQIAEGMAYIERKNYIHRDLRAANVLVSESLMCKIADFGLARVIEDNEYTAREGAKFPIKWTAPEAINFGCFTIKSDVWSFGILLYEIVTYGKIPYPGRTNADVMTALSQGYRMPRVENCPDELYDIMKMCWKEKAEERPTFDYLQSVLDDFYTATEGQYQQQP
T1 sequence (O08775 786-1343): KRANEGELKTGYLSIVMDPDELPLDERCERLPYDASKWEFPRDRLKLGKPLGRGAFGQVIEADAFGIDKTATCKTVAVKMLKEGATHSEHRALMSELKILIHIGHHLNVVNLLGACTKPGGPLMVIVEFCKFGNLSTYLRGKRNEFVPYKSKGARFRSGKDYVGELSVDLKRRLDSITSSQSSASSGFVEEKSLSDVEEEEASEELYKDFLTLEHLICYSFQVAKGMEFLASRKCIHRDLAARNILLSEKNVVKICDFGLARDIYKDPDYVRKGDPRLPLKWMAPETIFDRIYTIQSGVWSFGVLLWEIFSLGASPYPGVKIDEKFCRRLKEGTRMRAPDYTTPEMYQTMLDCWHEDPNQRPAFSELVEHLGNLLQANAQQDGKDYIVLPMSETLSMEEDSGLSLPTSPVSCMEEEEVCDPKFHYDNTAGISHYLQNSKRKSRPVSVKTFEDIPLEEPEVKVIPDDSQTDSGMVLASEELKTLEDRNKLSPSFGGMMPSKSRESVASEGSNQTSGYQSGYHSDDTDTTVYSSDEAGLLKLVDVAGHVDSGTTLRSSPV

As for `Cc1cc2c(F)c(Oc3ncnc4sc(C(=O)NCCN5CCOCC5)c(C)c34)ccc2[nH]1` [Cpd 19, 4-(4-fluoro-2-methyl-1H-indol-5-yloxy)-5-methyl-thieno[2,3-d]pyrimidine-6-carboxylic acid (2-morpholin-4-yl-ethyl)-amide], the IC50 (commonly the concentration that inhibits the measured activity by half) in assay [1] is 248 nM; in assay [2], above 100 µM; in assay [4], above 10 µM; in assay [5], above 10000 nM; in assay [6] it was above 10 µM. Also, the inhibition (as a rule, the drop in the measured response relative to a control, in per cent) at 2 µM in assay [3] was 16%.
Take `Cc1cc2c(F)c(Oc3ncnc4sc(C(=O)Nc5ccc(CN6CCOCC6)cc5)c(C)c34)ccc2[nH]1` [Cpd 20, 4-(4-fluoro-2-methyl-1H-indol-5-yloxy)-5-methyl-thieno[2,3-d]pyrimidine-6-carboxylic acid (4-morpholin-4-ylmethyl-phenyl)-amide]: the IC50 in assay [1] is 761 nM; in assay [2], above 100 µM; in assay [4] it was above 10 µM; in assay [5] it was above 10000 nM; in assay [6], above 10 µM. In addition, the inhibition at 2 µM in assay [3] amounted to 20%.
With `Cc1cc2c(F)c(Oc3ncnc4sc(C(=O)NCCN5CCCCC5)c(C)c34)ccc2[nH]1` [Cpd 21, 4-(4-fluoro-2-methyl-1H-indol-5-yloxy)-5-methyl-thieno[2,3-d]pyrimidine-6-carboxylic acid (2-piperidin-1-yl-ethyl)-amide], the IC50 in assay [1] is 393 nM; in assay [2], above 100 µM; in assay [4], 8.5 µM; in assay [5] it was 1500 nM; in assay [6], 9.4 µM. The inhibition at 2 µM in assay [3] is 8%.
For `Cc1cc2c(F)c(Oc3ncnc4sc(C(=O)NCCN5CCCC5)c(C)c34)ccc2[nH]1` [Cpd 22, 4-(4-fluoro-2-methyl-1H-indol-5-yloxy)-5-methyl-thieno[2,3-d]pyrimidine-6-carboxylic acid (2-pyrrolidin-1-yl-ethyl)-amide], the IC50 in assay [1] is 619 nM; in assay [2], above 100 µM; in assay [4] it was 15.2 µM; in assay [5], 2200 nM; in assay [6], 22.3 µM. Besides, the inhibition at 2 µM in assay [3] is -2%.
Consider `Cc1c(C(=O)Nc2ccc(CN3CCOCC3)cc2)sc2ncnc(Nc3ccc(Oc4ccccc4)cc3)c12` [Cpd 23, 5-methyl-4-(4-phenoxy-phenylamino)-thieno[2,3-d]pyrimidine-6-carboxylic acid (4-morpholin-4-ylmethyl-phenyl)-amide], for which the IC50 in assay [1] is above 100000 nM; in assay [2] it was above 100 µM; in assay [4], above 10 µM; in assay [5], 2900 nM; in assay [6], 7.1 µM. For the same compound, the inhibition at 2 µM in assay [3] turned out to be 9%.
Turning to `Cc1c(C(=O)NCCN2CCOCC2)sc2ncnc(Nc3ccc(Oc4ccccc4)cc3)c12` [Cpd 24], the IC50 was around 100000 nM in assay [1]; above 100 µM in assay [2]; above 100 µM in assay [4]; above 10000 nM in assay [5]; above 10 µM in assay [6]. For the same compound, the inhibition at 2 µM in assay [3] is 23%.
Turning to `COCCNC(=O)c1sc2ncnc(Oc3ccc4[nH]c(C)cc4c3F)c2c1C` [Cpd 27, 4-(4-fluoro-2-methyl-1H-indol-5-yloxy)-5-methyl-thieno[2,3-d]pyrimidine-6-carboxylic acid (2-methoxy-ethyl)-amide], the IC50 in assay [1] is 378 nM; in assay [2], above 10 µM; in assay [4] it was above 10 µM; in assay [5] it was above 10000 nM; in assay [6], above 10 µM. Moreover, the inhibition at 2 µM in assay [3] was 23%.
